Inconclusive results are not listed. Calls of active or inactive are those of the source. No rule for the calls is given here; tested in MIN6 cells.
Columns and labels:
[1] = test system: cells, GFP-channel autofluorescence, high-content imaging; assay: GFP-wavelength compound autofluorescence in cells – imaging, high-content imaging, artefact control, dose response (AID 2124);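 as to cell count: cells exposed to compound for 48 hours before fixing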
[2] = as above; details: cells, GFP-channel autofluorescence, high-content imaging; cell count; at 10 µM

Structure (SMILES)	EC50 [1]	cell count [2] [cells]
CCCCN1C(=O)/C(=C/C=C2\N(C)c3ccccc3C2(C)C)SC1=S	2.65 µM	2910
CC(=O)n1c(C=Nc2ccccc2)c(O)c2ccccc21	8.96 µM	3060
CC(C)/C=C1\CC/C(=C\c2ccc(N(C)C)cc2)C1=O	9.45 µM	2850
N#C/C(=C\c1ccc(N2CCCCC2)o1)C(N)=O	12.2 µM (inactive)	3260
CN1CC=C2C(C#N)=C(N)C(C#N)(C#N)[C@H](c3cccs3)[C@H]2C1	> 16 µM (inactive)	2820
CC(C)NC(=O)/C(C#N)=C/c1ccc(N(C)C)o1	14.3 µM (inactive)	3230
Cc1cccn2c(=O)c(/C=C3\SC(=S)N(CC(C)C)C3=O)c(NCCCOC(C)C)nc12	> 16 µM (inactive)	2810
COc1cccc2sc(NNC(=O)C3=COCCO3)nc12	8.52 µM	3320
COc1cccc(C2C3CN(C)CC=C3C(C#N)=C(N)C2(C#N)C#N)c1OC (stereo not given)	7.38 µM	2400
C=CCN1C=CC(=CC=C(C#N)C#N)C=C1	8.1 µM	2960
CCN1CC=C2C(C1)C(c1ccc(Cl)s1)C(C#N)=C(N)C2(C#N)C#N (stereo not given)	11.5 µM (inactive)	3020
CCCN1C(=O)/C(=C/C=C2\N(CC)c3ccccc3C2(C)C)SC1=S	2.71 µM	3030
CN1C(=O)C(=Cc2ccc(N3CCCCC3)o2)C(=O)N(C)C1=S	> 16 µM (inactive)	2940
COc1cc([C@@H]2[C@H]3CNCC=C3C(C#N)=C(N)C2(C#N)C#N)ccc1OC(C)C	13.6 µM (inactive)	3160
CCCCN1C(=O)/C(=C/C=C2\SCCN2C)SC1=S	6.67 µM	2930
CN(C)c1ccc(/C=C/C(O)=C2/C(=O)N(C)C3(C)CC2c2ccccc2O3)cc1 (stereo not given)	7.25 µM	2640
Cc1ccc(S(=O)(=O)CCSc2nc(C)cc(C(F)(F)F)c2C#N)cc1	7.21 µM	2460
CCN1CC=C2C(C#N)=C(N)C(C#N)(C#N)C(CCc3ccccc3)C2C1 (stereo not given)	9.3 µM	3160
CC(=O)c1c(C)[nH]c(-c2ccccc2)nc1=S	2.37 µM	3120
CCCN1CCc2c(sc(NC(=S)NC(=O)c3ccccc3)c2C#N)C1	13.3 µM (inactive)	3200

Structure (SMILES)	EC50 [1]	cell count [2] [cells]
O=C(O)c1cc(-c2ccc(/C=C3/SC(=S)N(Cc4ccccc4)C3=O)o2)ccc1Cl	7.47 µM	2840
CCOCCCNc1nc2c(C)cccn2c(=O)c1/C=C1\SC(=S)N(C(C)CC)C1=O (stereo not given)	> 16 µM (inactive)	2910
CCN(CC)c1ccc2cc(-c3nc(-c4ccc(OC)cc4)cs3)c(=O)oc2c1	> 16 µM (inactive)	2750
COc1ccc(CN=Cc2[nH]c3ccc(Br)c(Cl)c3c2O)cc1	> 16 µM (inactive)	3150
Cc1ccnc(N/C=C(\C#N)c2nc(-c3cccc(Br)c3)cs2)c1	8.87 µM	2880
O=C1c2cccc3c(O)ccc(c23)C(=O)N1Cc1ccccc1	> 16 µM (inactive)	2660
CN1CC=C2C(C#N)=C(N)C(C#N)(C#N)C(c3ccncc3)C2C1 (stereo not given)	14.8 µM (inactive)	2850
Cc1oc(C)c2c(=O)ccc3c(c12)OC(N)=C(C#N)C3c1ccccc1Cl (stereo not given)	14.8 µM (inactive)	3240
Cc1c2ccccc2nc2c(F)c(NC(C)C)c(F)c(F)c12	9.12 µM	2550
C/C(=N\Nc1ccc([N+](=O)[O-])cc1)c1cc2ccccc2o1	8.87 µM	2980
O=C(C1=C(O)C(=O)N(c2nccs2)C1c1ccccc1)c1cc2ccccc2o1 (stereo not given)	8.55 µM	2920
C=CCN1C(=O)c2cccc3c(N4CCCCC4)ccc(c23)C1=O	6.64 µM	3300
C=CCN1C(=O)/C(=C/c2ccc(N(C)C)cc2)S/C1=N\c1nnc(CC)s1	5.38 µM	2900
Cc1cc(N2CCCC2)ccc1/C=C1/C(=O)N(C)C(=S)N1C	7.11 µM	2940
Cn1c(/C(C#N)=C/c2ccc(-c3ccc(S(N)(=O)=O)cc3)o2)nc2ccccc21	8.08 µM	2680
O=c1oc2cc(O)ccc2cc1-c1nc2c(s1)CCc1ccccc1-2	7.42 µM	2720
N#C/C(=C\c1ccc(N2CCOCC2)o1)c1ccccc1	> 16 µM (inactive)	2130
CCN(CC)c1ccc2cc(/C(N)=N/NC(=O)c3cccs3)c(=O)oc2c1	8.97 µM	3050
CN1CC=C2C(C#N)=C(N)C(C#N)(C#N)C(c3cccc(Cl)c3Cl)C2C1 (stereo not given)	11.9 µM (inactive)	3010
CC(=O)Nc1ccc(N=Cc2c(O)c(C(=O)Nc3ccccc3)cc3ccccc23)cc1	11.1 µM (inactive)	1540

Structure (SMILES)	EC50 [1]	cell count [2] [cells]
CCN1CCc2c(sc(NC(=S)NC(=O)c3ccc(Cl)cc3)c2C(N)=O)C1	6.61 µM	3040
O=C1c2cccc3c(O)ccc(c23)C(=O)N1Cc1ccco1	14.6 µM (inactive)	2850
CCCCn1nc(-c2ccccc2)c2nc3ccccc3nc21	13.8 µM (inactive)	3250
COc1cc2c3nnc(-c4ccc(F)cc4)c-3cn(Cc3ccccc3)c2cc1OC	2.58 µM	338
CN1CC=C2C(C#N)=C(N)C(C#N)(C#N)[C@H](c3cccc(Cl)c3)C2C1 (stereo not given in full)	9.06 µM	2960
COc1ccc(NC(=O)/C(C#N)=C\c2ccc(N3CCOCC3)o2)cc1	11.6 µM (inactive)	3270
CCCNc1c(F)c(F)c2c(C)c3ccccc3nc2c1F	10.9 µM (inactive)	3140
N#C/C(=C/c1ccc(N2CCOCC2)o1)c1ccc(Cl)cc1	7.31 µM	1320
O=[N+]([O-])c1ccc(/C=C/C2=NN(c3ccccc3)C(c3ccco3)C2)o1 (stereo not given)	3.87 µM	3240
CCN1CC=C2C(C#N)=C(N)C(C#N)(C#N)C(c3cc(Cl)ccc3Cl)C2C1 (stereo not given)	12.8 µM (inactive)	2980
COc1ccc2c(c1)NC(c1ccc(N(C)C)cc1)c1cccn1-2 (stereo not given)	3.12 µM	2940
CCN(CC)c1ccc2cc(C(N)=O)/c(=N\NC(=O)c3ccncc3)oc2c1	9.35 µM	3100
COc1ccc(C(=O)c2sc3nc(-c4ccccc4)ccc3c2N)cc1OC	1.87 µM	2560
CCCN1C=CC(=CC=C(C#N)C#N)C=C1	7.84 µM	3220
N#C/C(=C\c1ccc(N2CCOCC2)o1)C(=O)NCCc1ccccc1	8.69 µM	3060
CC(=O)c1cc(NC(=O)c2ccc(Cl)cc2)c(=O)oc1/C=C/N(C)C	9.14 µM	2840
CN(C)c1ccc(/C=C/C(=O)c2c(O)c3ccccc3oc2=O)cc1	> 16 µM (inactive)	3230
CC1=C/C(=C\C=C(C#N)C#N)N(C)c2ccccc21	3.23 µM	3120
COc1cc(OC)c(-c2c3cc(O)c(=O)cc-3oc3cc(O)c(O)cc23)cc1OC	13.5 µM (inactive)	3000
CCCN1C(=O)/C(=C/c2c(N3CCNC(=O)C3CC(=O)OCC)nc3c(C)cccn3c2=O)SC1=S (stereo not given)	5.56 µM	2790

From PubChem BioAssay AID2124 (Sanford-Burnham Center for Chemical Genomics, 2009)
